Source: PMC6052120, “Bioactive Phenolics of the Genus Artemisia (Asteraceae): HPLC-DAD-ESI-TQ-MS/MS Profile of the Siberian Species and Their Inhibitory Potential Against α-Amylase and α-Glucosidase” (Frontiers in Pharmacology, 2018)

Columns and labels:
[1] = target: T1, α-amylase from Aspergillus oryzae (Aspergillus oryzae, UniProt P0C1B3); assay type: biochemical; settings: pure caffeoylquinic acids (CQA); acarbose reference; read-out: Inhibitory activity against enzyme as IC50 α-Amylase
T1 construct: purchased Sigma-Aldrich (St. Louis, MO, USA) 10065
Experimental: α-Amylase inhibitory activity was assayed according to a previously published spectrophotometric protocol (Olennikov and Kashchenko, [2014]). Sample solution in DMSO (10 μL) at varying concentrations (10, 100, 250, 500, and 1,000 μg/mL), 30 μL of phosphate buffer (pH 5.0) and 10 μL of α-amylase from Aspergillus oryzae (3 U/mL) were incubated for 20 min at . Then 10 μL of 2% starch solution, 40 μL of phosphate buffer (pH 5.0) and 100 μL of the reagent were added and incubated for 30 min at . The reagent was a solution of K2HPO4 (0.8 mM), KH2PO4 (0.4 mM), phenol (220 mM), 4-aminoantipyrine (1.5 μM), glucose oxidase from Aspergillus oryzae (3 U/mL), and peroxidase from horseradish (0.3 U/mL) in deionized water. Absorbance was measured at 510 nm. […] The ability to inhibit α-amylase was calculated using the following equation: […]
(§1) Values are expressed as mean obtained from five independent experiments.

[2] = target: T2, α-Glucosidase from Saccharomyces cerevisiae (Saccharomyces cerevisiae, UniProt P53341); assay: α-glucosidase inhibition assay, spectrophotometric method; assay type: biochemical; settings: pure caffeoylquinic acids (CQA); acarbose reference; read-out: Inhibitory activity against enzyme as IC50 α-Glucosidase
T2 construct: purchased Sigma-Aldrich (St. Louis, MO, USA) G5003
Experimental: The α-glucosidase inhibition assay was performed using spectrophotometric method (Olennikov et al., [2017b]). α-Glucosidase from Saccharomyces cerevisiae was dissolved in phosphate buffer (pH 6.8) containing bovine serum albumin (2 mg/mL) up to 0.5 U/mL concentration. Solution (10 μL) of sample in DMSO–phosphate buffer, pH 6.8 (1:9) at varying concentrations (10, 100, 250, 500, and 1,000 μg/mL) was premixed with 490 μL of phosphate buffer (pH 6.8) and 250 μL 5 mM p-nitrophenyl α-D-glucopyranoside. After preincubating at for 5 min, 250 μL α-glucosidase (0.5 U/mL) was added and incubated at for 15 min. The reaction was terminated by the addition of 2,000 μL Na2CO3 (200 mM). Absorbance was measured at 400 nm. […] The ability to inhibit α-glucosidase was calculated using the following equation: […]
as §1

T2 sequence (P53341 whole entry): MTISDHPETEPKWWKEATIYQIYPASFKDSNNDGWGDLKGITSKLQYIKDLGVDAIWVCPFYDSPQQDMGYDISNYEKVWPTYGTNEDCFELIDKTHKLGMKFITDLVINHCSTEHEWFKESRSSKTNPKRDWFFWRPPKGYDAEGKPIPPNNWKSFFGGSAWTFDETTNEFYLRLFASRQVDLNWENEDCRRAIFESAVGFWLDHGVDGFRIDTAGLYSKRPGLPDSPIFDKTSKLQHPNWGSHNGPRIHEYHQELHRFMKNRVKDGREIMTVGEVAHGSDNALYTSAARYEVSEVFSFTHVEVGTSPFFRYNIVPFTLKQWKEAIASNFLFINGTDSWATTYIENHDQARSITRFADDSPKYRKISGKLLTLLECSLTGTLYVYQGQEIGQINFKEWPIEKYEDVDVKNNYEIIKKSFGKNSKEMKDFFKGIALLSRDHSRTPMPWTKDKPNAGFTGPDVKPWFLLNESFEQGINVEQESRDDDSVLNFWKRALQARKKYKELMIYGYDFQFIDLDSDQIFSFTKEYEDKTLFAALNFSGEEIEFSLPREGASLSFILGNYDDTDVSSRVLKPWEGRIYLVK

Compound | IC50 [1] [µM] | IC50 [2] [µM]
O=C(C=Cc1ccc(O)c(O)c1)OC1CC(OC(=O)C=Cc2ccc(O)c(O)c2)(C(=O)O)CC(O)C1O (stereo not drawn) [1,5-Di-O-CQA, 1,5-Di-O-caffeoylquinic acid] | 77.4 ± 2.24 | 754 ± 23.4
O=C(/C=C/c1ccc(O)c(O)c1)OC1CC(OC(=O)/C=C/c2ccc(O)c(O)c2)(C(=O)O)CC(O)C1O (stereo not drawn) [1,3-Di-O-CQA, 1,3-Di-O-caffeoylquinic acid] | 101 ± 2.81 | 984 ± 28.5
O=C(/C=C/c1ccc(O)c(O)c1)OC1(C(=O)O)C[C@@H](O)C(O)[C@H](O)C1 (stereo partly drawn) [Compound 1-O-CQA] | 172 ± 5.34 | 1240 ± 42.1
O=C(/C=C/c1ccc(O)c(O)c1)O[C@@H]1C[C@](O)(C(=O)O)C[C@@H](O)[C@H]1O [Compound 3-O-CQA, 3-O-caffeoylquinic acid] | 170 ± 4.41 | –
O=C(/C=C/c1ccc(O)c(O)c1)O[C@@H]1[C@H](O)C[C@@](O)(C(=O)O)C[C@H]1OC(=O)/C=C/c1ccc(O)c(O)c1 [4,5-Di-O-CQA, 4,5-Di-O-caffeoylquinic acid] | 42.3 ± 1.18 | 62.1 ± 1.49
O=C(/C=C/c1ccc(O)c(O)c1)O[C@@H]1C[C@](O)(C(=O)O)C[C@@H](O)[C@H]1O [Compound 5-O-CQA, 5-O-Caffeoylquinic acid] | 84.9 ± 2.37 | –
O=C(/C=C/c1ccc(O)c(O)c1)OC1CC(O)(C(=O)O)CC(OC(=O)/C=C/c2ccc(O)c(O)c2)C1O (stereo not drawn) [3,5-Di-O-CQA, 3,5-Di-O-caffeoylquinic acid] | 51.3 ± 1.64 | 184 ± 5.34
O=C(/C=C/c1ccc(O)c(O)c1)O[C@H]1[C@H](O)C[C@](O)(C(=O)O)C[C@H]1O [Compound 4-O-CQA, 4-O-Caffeoylquinic acid] | 110 ± 3.39 | 1030 ± 40
O=C(/C=C/c1ccc(O)c(O)c1)OC1[C@H](OC(=O)/C=C/c2ccc(O)c(O)c2)CC(O)(C(=O)O)C[C@H]1OC(=O)/C=C/c1ccc(O)c(O)c1 (stereo partly drawn) [3,4,5-Tri-O-CQA] | 40.6 ± 1.05 | 61.1 ± 1.77
O=C(/C=C/c1ccc(O)c(O)c1)OC1CC(O)(C(=O)O)CC(O)C1OC(=O)/C=C/c1ccc(O)c(O)c1 (stereo not drawn) [3,4-Di-O-CQA, 3,4-Di-O-caffeoylquinic acid] | 67.2 ± 2.01 | 210 ± 6.5
